Test [1] deals with HCT116-mock-RNA-KO. Briefly: Cell killing in HCT116 isogenic pair (Cell Titer-Glo viability), mock knock-out cells with MTAP wildtype genotype. Conditions: 6 days incubation, 0-10 μM. It counts as cell-based, human. The method in brief:
(§1)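 HCT116 MTAP-knockout or mock-knockout (MTAP wildtype) cells in RPMI 1640 with 10% FBS were seeded overnight, then exposed to test compound at 0–10 μM final for 6 days at 37° C. Viability was measured by CellTiter-Glo luminescence and IC50 was fitted.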
On the technique in general: ATP-based viability assays read luminescence as a measure of living cells.

The test system of test [2] is HCT116-MTAP-KO. The test can be described thus: Cell killing in HCT116 isogenic pair (Cell Titer-Glo viability), MTAP knock-out cells. It counts as cell-based, human. Conditions: 6 days incubation, 0-10 μM, * = more than 50% viability inhibition at tested concentration without a full curve. The method in brief: as §1

Each structure is given as a SMILES string.

`CC[C@@H](C)N(Cc1ccc(C2CC2)c(C)n1)C(=O)c1cc2nc(N)c3c(c2[nH]1)COC3` [Example 108, (R)-5-amino-N-(sec-butyl)-N-((5-cyclopropyl-6-methylpyridin-2-yl)methyl)-6,8-dihydro-1H-furo[3,4-d]pyrrolo[3,2-b]pyridine-2-carboxamide]: the IC50 (usually the concentration that inhibits the measured activity by half) in test [1] (Homo sapiens, HCT-116, 144 h) came to 3420 nM; in test [2] (Homo sapiens, HCT-116, 144 h), 31 nM.

Regarding `CCC(CC)N(Cc1cc(C)c(C2CC2)cn1)C(=O)c1cc2nc(N)c3c(c2[nH]1)COC3` [Example 109, 5-amino-N-((5-cyclopropyl-4-methylpyridin-2-yl)methyl)-N-(pentan-3-yl)-6,8-dihydro-1H-furo[3,4-d]pyrrolo[3,2-b]pyridine-2-carboxamide], the IC50 in test [1] (Homo sapiens, HCT-116, 144 h) came out at 1790 nM; in test [2] (Homo sapiens, HCT-116, 144 h), 24 nM.

Regarding `CCN(C(=O)c1cc2nc(N)c3c(c2[nH]1)COC3)[C@H](C)c1ncc(C(F)(F)F)cc1F` [Example 110, (R)-5-amino-N-ethyl-N-(1-(3-fluoro-5-(trifluoromethyl)pyridin-2-yl)ethyl)-6,8-dihydro-1H-furo[3,4-d]pyrrolo[3,2-b]pyridine-2-carboxamide], the IC50 in test [1] (Homo sapiens, HCT-116, 144 h) amounted to 2490 nM; in test [2] (Homo sapiens, HCT-116, 144 h), 12 nM.

In the case of `CCN(C(=O)c1cc2nc(N)c3c(c2[nH]1)COC3)[C@@H](C)c1ncc(C(F)(F)F)cc1F` [Example 111, (S)-5-amino-N-ethyl-N-(1-(3-fluoro-5-(trifluoromethyl)pyridin-2-yl)ethyl)-6,8-dihydro-1H-furo[3,4-d]pyrrolo[3,2-b]pyridine-2-carboxamide], the IC50 in test [1] (Homo sapiens, HCT-116, 144 h) is above 10000 nM; in test [2] (Homo sapiens, HCT-116, 144 h), 2200 nM.

Consider `CCN(C(=O)c1cc2nc(N)c3c(c2[nH]1)COC3)[C@H](C)c1ccc(C2CC2)cn1` [Example 112, (R)-5-amino-N-(1-(5-cyclopropylpyridin-2-yl)ethyl)-N-ethyl-6,8-dihydro-1H-furo[3,4-d]pyrrolo[3,2-b]pyridine-2-carboxamide], for which the IC50 in test [1] (Homo sapiens, HCT-116, 144 h) was above 10000 nM; in test [2] (Homo sapiens, HCT-116, 144 h), 59 nM.

In the case of `CCN(C(=O)c1cc2nc(N)c3c(c2[nH]1)COC3)[C@@H](C)c1ccc(C2CC2)cn1` [Example 113, (S)-5-amino-N-(1-(5-cyclopropylpyridin-2-yl)ethyl)-N-ethyl-6,8-dihydro-1H-furo[3,4-d]pyrrolo[3,2-b]pyridine-2-carboxamide], the IC50 in test [1] (Homo sapiens, HCT-116, 144 h) was above 10000 nM; in test [2] (Homo sapiens, HCT-116, 144 h) it was 1610 nM.

As for `CCN(C(=O)c1cc2nc(N)c3c(c2[nH]1)COC3)[C@@H](C)c1ccc(C(F)(F)F)cn1` [Example 114, (S)-5-amino-N-ethyl-N-(1-(5-(trifluoromethyl)pyridin-2-yl)ethyl)-6,8-dihydro-1H-furo[3,4-d]pyrrolo[3,2-b]pyridine-2-carboxamide], the IC50 in test [1] (Homo sapiens, HCT-116, 144 h) is above 10000 nM; in test [2] (Homo sapiens, HCT-116, 144 h) it was 3630 nM.

On to `CCN(C(=O)c1cc2nc(N)c3c(c2[nH]1)COC3)[C@H](C)c1ccc(C(F)(F)F)cn1` [Example 115, (R)-5-amino-N-ethyl-N-(1-(5-(trifluoromethyl)pyridin-2-yl)ethyl)-6,8-dihydro-1H-furo[3,4-d]pyrrolo[3,2-b]pyridine-2-carboxamide], for which the IC50 in test [1] (Homo sapiens, HCT-116, 144 h) is 6820 nM; in test [2] (Homo sapiens, HCT-116, 144 h) it was 43 nM.

Consider `CCC(CC)N(Cc1c(F)cc(C(F)(F)F)cc1F)C(=O)c1cc2nc(N)c3c(c2[nH]1)CO[C@@H]3C` [Example 116, (R)-5-amino-N-(2,6-difluoro-4-(trifluoromethyl)benzyl)-6-methyl-N-(pentan-3-yl)-6,8-dihydro-1H-furo[3,4-d]pyrrolo[3,2-b]pyridine-2-carboxamide], for which the IC50 amounted to 269 nM in test [1] (Homo sapiens, HCT-116, 144 h) and 6.9 nM in test [2] (Homo sapiens, HCT-116, 144 h).

For the compound `CCC(CC)N(Cc1ncc(N2CCOCC2)cc1F)C(=O)c1cc2nc(N)c3c(c2[nH]1)COC3` [Example 117, 5-amino-N-((3-fluoro-5-morpholinopyridin-2-yl)methyl)-N-(pentan-3-yl)-6,8-dihydro-1H-furo[3,4-d]pyrrolo[3,2-b]pyridine-2-carboxamide], the concentration for half-maximal inhibition (IC50) in test [1] (Homo sapiens, HCT-116, 144 h) is 609 nM; in test [2] (Homo sapiens, HCT-116, 144 h) it was 6.5 nM.

Regarding `C[C@@H](c1ncc(C2CC2)cc1F)N(C)C(=O)c1cc2nc(N)c3c(c2[nH]1)COC3` [Example 118, (S)-5-amino-N-(1-(5-cyclopropyl-3-fluoropyridin-2-yl)ethyl)-N-methyl-6,8-dihydro-1H-furo[3,4-d]pyrrolo[3,2-b]pyridine-2-carboxamide], the IC50 in test [1] (Homo sapiens, HCT-116, 144 h) was above 10000 nM; in test [2] (Homo sapiens, HCT-116, 144 h), 2250 nM.

For `C[C@H](c1ncc(C2CC2)cc1F)N(C)C(=O)c1cc2nc(N)c3c(c2[nH]1)COC3` [Example 119, (R)-5-amino-N-(1-(5-cyclopropyl-3-fluoropyridin-2-yl)ethyl)-N-methyl-6,8-dihydro-1H-furo[3,4-d]pyrrolo[3,2-b]pyridine-2-carboxamide], the 50% inhibitory concentration (IC50) turned out to be 1590 nM in test [1] (Homo sapiens, HCT-116, 144 h) and 9.8 nM in test [2] (Homo sapiens, HCT-116, 144 h).

With `CCN(C(=O)c1cc2nc(N)c3c(c2[nH]1)COC3)[C@H](C)c1ncc(C2CC2)cc1F` [Example 120, (R)-5-amino-N-(1-(5-cyclopropyl-3-fluoropyridin-2-yl)ethyl)-N-ethyl-6,8-dihydro-1H-furo[3,4-d]pyrrolo[3,2-b]pyridine-2-carboxamide], the IC50 in test [1] (Homo sapiens, HCT-116, 144 h) was 992 nM; in test [2] (Homo sapiens, HCT-116, 144 h), 5.6 nM.

`CCN(C(=O)c1cc2nc(N)c3c(c2[nH]1)COC3)[C@@H](C)c1ncc(C2CC2)cc1F` [Example 121, (S)-5-amino-N-(1-(5-cyclopropyl-3-fluoropyridin-2-yl)ethyl)-N-ethyl-6,8-dihydro-1H-furo[3,4-d]pyrrolo[3,2-b]pyridine-2-carboxamide]: the IC50 in test [1] (Homo sapiens, HCT-116, 144 h) is above 10000 nM; in test [2] (Homo sapiens, HCT-116, 144 h), 586 nM.

Take `C[C@@H](c1c(F)cc(Br)cc1F)N(C)C(=O)c1cc2nc(N)c3c(c2[nH]1)COC3` [Example 122, (S)-5-amino-N-(1-(4-bromo-2,6-difluorophenyl)ethyl)-N-methyl-6,8-dihydro-1H-furo[3,4-d]pyrrolo[3,2-b]pyridine-2-carboxamide]: the IC50 in test [1] (Homo sapiens, HCT-116, 144 h) turned out to be 5780 nM; in test [2] (Homo sapiens, HCT-116, 144 h), 2220 nM.

Turning to `C[C@H](c1c(F)cc(Br)cc1F)N(C)C(=O)c1cc2nc(N)c3c(c2[nH]1)COC3` [Example 123, (R)-5-amino-N-(1-(4-bromo-2,6-difluorophenyl)ethyl)-N-methyl-6,8-dihydro-1H-furo[3,4-d]pyrrolo[3,2-b]pyridine-2-carboxamide], the IC50 was found to be 4910 nM in test [1] (Homo sapiens, HCT-116, 144 h) and 46 nM in test [2] (Homo sapiens, HCT-116, 144 h).

Consider `CCN(C(=O)c1cc2nc(N)c3c(c2[nH]1)CO[C@@H]3C)[C@H](C)c1ccc(Br)cc1F` [Example 124, (R)-5-amino-N—((R)-1-(4-bromo-2-fluorophenyl)ethyl)-N-ethyl-6-methyl-6,8-dihydro-1H-furo[3,4-d]pyrrolo[3,2-b]pyridine-2-carboxamide], for which the IC50 came to 2470 nM in test [1] (Homo sapiens, HCT-116, 144 h) and 22 nM in test [2] (Homo sapiens, HCT-116, 144 h).

Take `CCN(C(=O)c1cc2nc(N)c3c(c2[nH]1)CO[C@@H]3C)[C@@H](C)c1ccc(Br)cc1F` [Example 125]: the IC50 in test [1] was 7460 nM; in test [2], 365 nM.

Turning to `CCN(C(=O)c1cc2nc(N)c3c(c2[nH]1)CO[C@@H]3C)[C@H](C)c1ccc(C(F)(F)F)cc1F` [Example 126, (R)-5-amino-N-ethyl-N—((R)-1-(2-fluoro-4-(trifluoromethyl)phenyl)ethyl)-6-methyl-6,8-dihydro-1H-furo[3,4-d]pyrrolo[3,2-b]pyridine-2-carboxamide], the IC50 in test [1] (Homo sapiens, HCT-116, 144 h) turned out to be 1720 nM; in test [2] (Homo sapiens, HCT-116, 144 h), 11 nM.

With `CCN(C(=O)c1cc2nc(N)c3c(c2[nH]1)CO[C@@H]3C)[C@@H](C)c1ccc(C(F)(F)F)cc1F` [Example 127, (R)-5-amino-N-ethyl-N—((S)-1-(2-fluoro-4-(trifluoromethyl)phenyl)ethyl)-6-methyl-6,8-dihydro-1H-furo[3,4-d]pyrrolo[3,2-b]pyridine-2-carboxamide], the IC50 turned out to be 5900 nM in test [1] (Homo sapiens, HCT-116, 144 h) and 236 nM in test [2] (Homo sapiens, HCT-116, 144 h).

Consider `CCN(C(=O)c1cc2nc(N)c3c(c2[nH]1)CO[C@@H]3C)[C@H](C)c1ncc(Br)cc1F` [Example 128, (R)-5-amino-N—((R)-1-(5-bromo-3-fluoropyridin-2-yl)ethyl)-N-ethyl-6-methyl-6,8-dihydro-1H-furo[3,4-d]pyrrolo[3,2-b]pyridine-2-carboxamide], for which the IC50 in test [1] (Homo sapiens, HCT-116, 144 h) was 1050 nM; in test [2] (Homo sapiens, HCT-116, 144 h), 6 nM.

As for `CCN(C(=O)c1cc2nc(N)c3c(c2[nH]1)CO[C@@H]3C)[C@@H](C)c1ncc(Br)cc1F` [Example 129, (R)-5-amino-N—((S)-1-(5-bromo-3-fluoropyridin-2-yl)ethyl)-N-ethyl-6-methyl-6,8-dihydro-1H-furo[3,4-d]pyrrolo[3,2-b]pyridine-2-carboxamide], the IC50 in test [1] (Homo sapiens, HCT-116, 144 h) was above 10000 nM; in test [2] (Homo sapiens, HCT-116, 144 h) it was 1180 nM.

As to `CCN(C(=O)c1cc2nc(N)c3c(c2[nH]1)CO[C@@H]3C)[C@H](C)c1ncc(C(F)(F)F)cc1F` [Example 130, (R)-5-amino-N-ethyl-N—((R)-1-(3-fluoro-5-(trifluoromethyl)pyridin-2-yl)ethyl)-6-methyl-6,8-dihydro-1H-furo[3,4-d]pyrrolo[3,2-b]pyridine-2-carboxamide], the IC50 in test [1] (Homo sapiens, HCT-116, 144 h) came to 1090 nM; in test [2] (Homo sapiens, HCT-116, 144 h) it was 8.5 nM.

For the compound `CCN(C(=O)c1cc2nc(N)c3c(c2[nH]1)CO[C@@H]3C)[C@@H](C)c1ncc(C(F)(F)F)cc1F` [Example 131, (R)-5-amino-N-ethyl-N—((S)-1-(3-fluoro-5-(trifluoromethyl)pyridin-2-yl)ethyl)-6-methyl-6,8-dihydro-1H-furo[3,4-d]pyrrolo[3,2-b]pyridine-2-carboxamide], the IC50 in test [1] (Homo sapiens, HCT-116, 144 h) was above 10000 nM; in test [2] (Homo sapiens, HCT-116, 144 h), 1830 nM.

`CCN(C(=O)c1cc2nc(N)c3c(c2[nH]1)COC3)[C@H](C)c1ncc(N2CCOCC2)cc1F` [Example 132, 5-amino-N-ethyl-N-(1-(3-fluoro-5-morpholinopyridin-2-yl)ethyl)-6,8-dihydro-1H-furo[3,4-d]pyrrolo[3,2-b]pyridine-2-carboxamide]: the IC50 is above 10000 nM in test [1] (Homo sapiens, HCT-116, 144 h) and 45 nM in test [2] (Homo sapiens, HCT-116, 144 h).

(Values after US20240368177A1, “5-AMINO-6,8-DIHYDRO-1H-FURO[3,4-d]PYRROLO[3,2-b]PYRIDINE-2-CARBOXAMIDE DERIVATIVES AS MTA-COOPERATIVE INHIBITORS OF PRMT5” (BeiGene Switzerland GmbH, priority 2023, published 2024).)
